In patent US7910102B2 (priority 2006, dated 2011):
Values joined by “and” are separate entries in the source; they are usually repeats but may differ in a detail not shown here. Identical values can stand only once. “Also recorded” adds a separate entry of the source. Bridge positions count the residues as written; N and C are the ends. Square brackets hold non-standard residues; d marks the D form. Ends that are not written are not given here. Peptide text beside a SMILES is read from it. 1Nal = N[C@@H](Cc1cccc2ccccc12)C(=O)O

Key:
[1] = system: IFN-g production in human whole blood; type: cell-based
[2] = system: IL-2 production in human whole blood; type: cell-based
human Kv1.3 [3] = target: T1, human Kv1.3 (Homo sapiens, UniProt P22001); type: cell-based; design: expressed in transfected cells
T1 sequence (P22001 whole entry): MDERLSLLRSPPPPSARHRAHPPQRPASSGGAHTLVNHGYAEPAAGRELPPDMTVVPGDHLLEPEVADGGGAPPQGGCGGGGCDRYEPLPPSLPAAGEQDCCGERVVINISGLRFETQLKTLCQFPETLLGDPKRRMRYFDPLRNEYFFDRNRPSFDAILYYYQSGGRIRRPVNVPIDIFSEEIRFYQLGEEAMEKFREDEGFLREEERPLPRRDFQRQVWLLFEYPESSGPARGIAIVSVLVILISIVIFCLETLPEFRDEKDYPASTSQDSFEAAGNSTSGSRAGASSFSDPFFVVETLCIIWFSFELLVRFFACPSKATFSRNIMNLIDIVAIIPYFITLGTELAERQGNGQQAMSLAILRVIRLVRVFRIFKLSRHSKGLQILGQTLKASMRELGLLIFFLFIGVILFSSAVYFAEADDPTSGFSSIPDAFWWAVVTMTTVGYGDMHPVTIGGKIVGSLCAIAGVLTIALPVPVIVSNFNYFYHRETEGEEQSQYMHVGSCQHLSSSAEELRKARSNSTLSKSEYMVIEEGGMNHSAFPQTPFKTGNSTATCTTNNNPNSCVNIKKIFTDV

human Kv1.3 [4] = target: T1, human Kv1.3; type: cell-based; conditions: for IC50: read-out: IC50 Sustained
CD40L on CD4+ T cells = type: cell-based, human
IL-2R on CD4+ T cells = type: cell-based, human

Molecule: CC[C@H](C)[C@@H]1NC(=O)[C@H](CCCCN)NC(=O)[C@@H](NC(=O)[C@H](CCCCN)NC(=O)[C@@H](NC(=O)[C@H](CC(N)=O)NC(=O)[C@@H](NC(=O)[C@@H](NC(=O)[C@@H](NC(=O)CN)C(C)C)[C@@H](C)CC)[C@@H](C)CC)C(C)C)CSSC[C@@H]2NC(=O)[C@H](CCCCN)NC(=O)CNC(=O)[C@H](Cc3ccccc3)NC(=O)[C@H](CCCNC(=N)N)NC(=O)[C@H](CCSC)NC(=O)CNC(=O)[C@H](C)NC(=O)[C@H](Cc3cccc4ccccc34)NC(=O)[C@H](CCCCN)NC(=O)[C@@H]3CSSC[C@@H](C(=O)N[C@H](C(=O)N4CCC[C@H]4C(=O)N[C@@H](CCCCN)C(=O)O)[C@@H](C)O)NC(=O)[C@H](Cc4c[nH]cn4)NC(=O)[C@H](CSSC[C@H](NC(=O)[C@H](CCC(N)=O)NC(=O)[C@H](CCCNC(=N)N)NC(=O)[C@H](CO)NC1=O)C(=O)N[C@@H](CC(C)C)C(=O)N[C@@H](CCC(=O)O)C(=O)N1CCC[C@H]1C(=O)N3)NC(=O)[C@H](CCCCN)NC(=O)CNC(=O)[C@H](CC(N)=O)NC(=O)[C@H](CCSC)NC2=O [K20Nal] (H-GVIINVKCKISRQCLEPCK[1Nal]AGMRFGKCMNGKCHCTPK-OH; disulfide 8-28, 14-33, 18-35)
- IC50 ([1]; read-out: Analogue Activity (IC50, pM) WB/IFNg): 12 pM

Molecule: CC[C@H](C)[C@@H]1NC(=O)[C@H](CCCCN)NC(=O)[C@@H](NC(=O)[C@H](CCCCN)NC(=O)[C@@H](NC(=O)[C@H](CC(N)=O)NC(=O)[C@@H](NC(=O)[C@@H](NC(=O)[C@@H](NC(=O)CN)C(C)C)[C@@H](C)CC)[C@@H](C)CC)C(C)C)CSSC[C@@H]2NC(=O)[C@H](CCCCN)NC(=O)CNC(=O)[C@H](Cc3ccccc3)NC(=O)[C@H](CCCNC(=N)N)NC(=O)[C@H](CCSC)NC(=O)CNC(=O)[C@H](C)NC(=O)[C@H](CCCCN)NC(=O)[C@H](CCCCN)NC(=O)[C@@H]3CSSC[C@@H](C(=O)N[C@H](C(=O)N4CCC[C@H]4C(=O)N[C@@H](CCCCN)C(=O)O)[C@@H](C)O)NC(=O)[C@H](Cc4c[nH]cn4)NC(=O)[C@H](CSSC[C@H](NC(=O)[C@H](CCC(N)=O)NC(=O)[C@H](CCCNC(=N)N)NC(=O)[C@H](CO)NC1=O)C(=O)N[C@@H](CC(C)C)C(=O)N[C@@H](CCC(=O)O)C(=O)N1CCC[C@H]1C(=O)N3)NC(=O)[C@H](CCCCN)NC(=O)CNC(=O)[C@H](CC(N)=O)NC(=O)[C@H](C)NC2=O [OSK1[Ala-29]] (H-GVIINVKCKISRQCLEPCKKAGMRFGKCANGKCHCTPK-OH; disulfide 8-28, 14-33, 18-35)
- potency in blocking the cytokine response relative to cyclosporin A (in words) [2]: several orders of magnitude more potent
- inhibition of the Kv1.3 current (in words) (human Kv1.3 [3]): potent inhibition of the Kv1.3 current

Molecule: Fc-L10-OSK1[K7S,E16K,K20D]: OSK1-peptibody with triple amino acid substitutions at positions 7, 16 and 20
- fold less potent than the synthetic OSK1 toxin peptide (human Kv1.3 [4]): approximately 21 fold

Molecule: Fc-L10-OSK1[K7S]
- fold less potent than the synthetic OSK1 toxin peptide (human Kv1.3 [4]): approximately 10 fold

Molecule: Fc-L10-ShK[2-35]: human IgG1 Fc fused via L10 linker to ShK[2-35]; peptibody
- block of thapsigargin-induced upregulation of CD40L on T cells (in words) (CD40L on CD4+ T cells): blocked
- block of thapsigargin-induced IL-2 production in human whole blood (in words) [2]: suppressed; also recorded: potently blocked IL-2 secretion
- block of thapsigargin-induced upregulation of the IL-2R on T cells (in words) (IL-2R on CD4+ T cells): blocked
- block of thapsigargin-induced IFN-g production in human whole blood (in words) [1]: suppressed; also recorded: blocked

Molecule: PEG-Fc-L10-OSK1
- IC50 (human Kv1.3 [4]): 0.256 nM and 0.332 nM

Molecule: PEG-Fc-L10-SHK(2-35)
- IC50 (human Kv1.3 [4]): 0.175 nM and 0.158 nM

Molecule: SEQ ID No: 4989: OSK1 analog without beta strand 1 (labeled des 1-7), Table 42 (CKISRQCLKPCKDAGMRFGKCMNGKCHC-NH2; ends and bridges not checked)
- blockade of the whole blood cytokine response / inflammation (in words) [2]: still retain activity in blocking inflammation

Molecule: dendrotoxin-K [DTX-K, reference compound]
- block of thapsigargin-induced upregulation of CD40L on T cells (in words) (CD40L on CD4+ T cells): no significant activity
- block of thapsigargin-induced upregulation of the IL-2R on T cells (in words) (IL-2R on CD4+ T cells): no significant activity

Molecule: iberiotoxin (QFTDVDCSVSKECWSVCKDLFGVDRGKCMGKKCRCYQ; Definition of Artificial Sequence: Synthetic peptide) [IbTx, reference compound]
- block of thapsigargin-induced upregulation of CD40L on T cells (in words) (CD40L on CD4+ T cells): no significant activity
- block of thapsigargin-induced IL-2 production in human whole blood (in words) [2]: no significant activity
- block of thapsigargin-induced upregulation of the IL-2R on T cells (in words) (IL-2R on CD4+ T cells): no significant activity
- block of thapsigargin-induced IFN-g production in human whole blood (in words) [1]: no significant activity

B1: FcLoop-L4-OsK1-L4: FcLoop OSK1 toxin conjugate as named in b1013 only (protein)
chain: MDKTHTCPPCPAPELLGGPSVFLFPPKPKDTLMISRTPEVTCVVVDVSHEDPEVKFNWYVDGVEVHNAKTKPREEQYNSTYRVVSVLTVLHQDWLNGKEYKCKVSNKALPAPIEKTISKAKGQPREPQVYTLPPSRDELGGGGGVIINVKCKISRQCLEPCKKAGMRFGKCMNGKCHCTPKGGTKNQVSLTCLVKGFYPSDIAVEWESNGQPENNYKTTPPVLDSDGSFFLYSKLTVDKSRWQQGNVFSCSVMHEALHNHYTQKSLSLSPGK
- blockade of the whole blood cytokine response / inflammation (in words) [2]: IC50 values in the pM range

B2: PEGylated CH2-OSK1: CH2-OSK1 fusion protein mono-PEGylated with 20 kD methoxy-PEG-aldehyde (conjugate)
chain: MGGHHHHHHGGGPSVFLFPPKPKDTLMISRTPEVTCVVVDVSHEDPEVKFNWYVDGVEVHNAKTKPREEQYNSTYRVVSVLTVLHQDWLNGKEYKCKVSNKALPAPIEKTISGGGGSGGGGSGVIINVKCKISRQCLEPCKKAGMRFGKCMNGKCHCTPK
- blockade of the whole blood cytokine response / inflammation (in words) [2]: active in blocking inflammation; also recorded: modest blockade of the whole blood cytokine response

B3: FcLoop-L2-ShK-L2: ShK inserted into the human IgG1 Fc-loop domain with Gly linkers (protein)
chain: MDKTHTCPPCPAPELLGGPSVFLFPPKPKDTLMISRTPEVTCVVVDVSHEDPEVKFNWYVDGVEVHNAKTKPREEQYNSTYRVVSVLTVLHQDWLNGKEYKCKVSNKALPAPIEKTISKAKGQPREPQVYTLPPSRDELGGRSCIDTIPKSRCTAFQCKHSMKYRLSFCRKTCGTCGGTKNQVSLTCLVKGFYPSDIAVEWESNGQPENNYKTTPPVLDSDGSFFLYSKLTVDKSRWQQGNVFSCSVMHEALHNHYTQKSLSLSPGK
modifications: Definition of Artificial Sequence: Synthetic protein
- blockade of the whole blood cytokine response / inflammation (in words) [2]: IC50 values in the pM range

B4: FcLoop-L2-OsK1-L2: OsK1 inserted into the human IgG1 Fc-loop domain with Gly linkers (protein)
chain: MDKTHTCPPCPAPELLGGPSVFLFPPKPKDTLMISRTPEVTCVVVDVSHEDPEVKFNWYVDGVEVHNAKTKPREEQYNSTYRVVSVLTVLHQDWLNGKEYKCKVSNKALPAPIEKTISKAKGQPREPQVYTLPPSRDELGGGVIINVKCKISRQCLEPCKKAGMRFGKCMNGKCHCTPKGGTKNQVSLTCLVKGFYPSDIAVEWESNGQPENNYKTTPPVLDSDGSFFLYSKLTVDKSRWQQGNVFSCSVMHEALHNHYTQKSLSLSPGK
modifications: Definition of Artificial Sequence: Synthetic protein
- blockade of the whole blood cytokine response / inflammation (in words) [2]: IC50 values in the pM range
